Reference: patent US20160113940A1, “METHODS OF TREATING BIOFILMS” (BIOMIMETIX J.V., LLC, priority 2013, published 2016)

Columns and labels:
[1] = system: Biofilm forming Staphylococcus Aureus
Protocol: A total of 20 C57B5 male mice were randomly divided into four treatment groups after surgery to create an infected femur fracture (midshaft femur fracture fixed with intramedullary 23 g needle and with 10^4 S. aureus added to the fracture site):
2. Antibiotic (Keflex) starting 24 hours post-surgery,
3. SOD mimetic MnTE-2-PyP (starting 24 hours post-surgery,
4. Antibiotic plus MnTE-2-PyP (starting 24 hours post-surgery).
The mice were followed for 2 weeks and received daily access to Keflex in drinking water at […] dose for the antibiotic treated groups and MnTE three time per week (loading dose day 1=5.0 mg/kg SQ, followed by 2.5 mg/kg SQ three times weekly). […] Mice were harvested after 2 weeks and femurs were homogenized in PBS, supernatants were serially diluted and plated to determine cell counts.

[2] = system: Biofilm forming S. aureus; experiment: Inhibition of Staphylococcus aureus biofilm formation in vitro (96 well plates, absorbance at 600 nm); type: cell-based; conditions: established 24 h biofilm, 24 hours further growth after treatment, vs PBS; p<0.0001; FIG. 1
Protocol: Biofilm forming S. aureus was grown in 96 well plates for 24 hours to allow a biofilm to form. Wells were allowed to grow an additional 24 hours after being treated with either PBS or SOD mimetic (Mn (III) tetrakis (N-ethylpyridinium-2-yl) porphyrin, or “MnTE-PyP”). Biofilm intensity was measured using absorbance at 600 nm. […] (p<0.0001)

## CC1=C(C(=O)O)N2C(=O)[C@@H](NC(=O)[C@H](N)c3ccccc3)[C@H]2SC1 [Keflex, reference compound]
[1]; infected femur fracture, 2 wks, FIG. 3
  Fracture healing compared to no treatment: significantly improved fracture healing

## CC[n+]1ccccc1-c1c2nc(c(-c3cccc[n+]3CC)c3ccc([n-]3)c(-c3cccc[n+]3CC)c3nc(c(-c4cccc[n+]4CC)c4ccc1[n-]4)C=C3)C=C2.[Mn+3] [MnTE-2-PyP, Mn (III) tetrakis (N-ethylpyridinium-2-yl) porphyrin]
[2]
  Biofilm intensity (absorbance at 600 nm): disrupts established S. aureus biofilms in culture
[1]; initial post-operative period, mimetic only group, not felt to be related to the compound
  Mortality: one mouse died
